Among the data in patent publication US20060046993A1, “Crystalline polymorphic form of irinotecan hydrochloride” (Pharmacia Italia S.p.A., priority 2004, published 2006) are Irinotecan hydrochloride concentration values, retold here.

Structures can show the parent of a compound that is named as a salt.

A short description of the data set: Solubility determination of irinotecan hydrochloride Form c in comparison with Form b (excess solid shaken at room temperature, HPLC assay). The format is physicochemical.

As for `CCc1c2c(nc3ccc(OC(=O)N4CCC(N5CCCCC5)CC4)cc13)-c1cc3c(c(=O)n1C2)COC(=O)[C@]3(O)CC` [Form b, (S)-4,11-Diethyl-3,4,12,14-tetrahydro-4-hydroxy-3,14-dioxo-1H-pyrano[3′,4′:6,7]-indolizino[1,2-b]quinolin-9-yl[1,4′-bipiperidine]-1-carboxylate hydrochloride], the Irinotecan hydrochloride concentration turned out to be 11.03 mg/mL (a = deionized water, 15 MIN); 12.10 mg/mL (a = deionized water, 30 MIN); 12.12 mg/mL (a = deionized water, 60 MIN); 11.80 mg/mL (a = deionized water, 120 MIN); 0.45 mg/mL (b = pH 1.2 buffer, 15 MIN); 0.42 mg/mL (b = pH 1.2 buffer, 30 MIN). Besides, the Irinotecan hydrochloride concentration by setting is: (b = pH 1.2 buffer, 60 MIN) 0.44 mg/mL; (b = pH 1.2 buffer, 120 MIN) 0.40 mg/mL; (c = lactic acid pH 3.5, 15 MIN) 10.27 mg/mL; (c = lactic acid pH 3.5, 24 HOURS) 11.06 mg/mL; (c = lactic acid pH 3.5, 30 MIN) 10.38 mg/mL; (c = lactic acid pH 3.5, 60 MIN) 10.17 mg/mL. Under “c = lactic acid pH 3.5, 120 MIN”, this compound yielded an Irinotecan hydrochloride concentration of 11.13 mg/mL.
